According to ChEMBL document CHEMBL1201862, “PubChem BioAssay data set” (2004):
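In this assay, cells in 96-well plates receive the compound at five concentrations for 48 hours. Endpoints are linearly interpolated between the surrounding concentrations. GI50 is the concentration that inhibits growth by half.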 Calls of active or inactive are those of the source. Rule as the data show it: active = GI50 up to about 1.1 µM and inactive = higher.

Experiments:
Assay in all cases: growth of human tumour cells (NCI), 48 h
[1] = test system: HCT-15
[2] = test system: SK-OV-3
[3] = test system: 786-0
[4] = test system: RPMI-8226
[5] = test system: NCI-H460
[6] = test system: OVCAR-5
[7] = test system: OVCAR-4
[8] = test system: SNB-19
[9] = test system: T47D
[10] = test system: U-251
[11] = test system: BT-549
[12] = test system: HL-60
[13] = test system: MOLT-4
[14] = test system: A549
[15] = test system: Hs-578T
[16] = test system: RXF 393
[17] = test system: OVCAR-3
[18] = test system: EKVX
[19] = test system: SF-539
[20] = test system: NCI-H23
[21] = test system: ACHN
[22] = test system: SR
[23] = test system: A498
[24] = test system: MCF7
[25] = test system: MDA-N
[26] = test system: DU-145
[27] = test system: UACC-62
[28] = test system: NCI/ADR-RES
[29] = test system: Malme-3M
[30] = test system: PC-3
[31] = test system: SK-MEL-5
[32] = test system: KM12
[33] = test system: SNB-75
[34] = test system: NCI-H522
[35] = test system: UO-31
[36] = test system: OVCAR-8
[37] = test system: IGROV-1
[38] = test system: COLO 205
[39] = test system: SN12C
[40] = test system: M14
[41] = test system: UACC-257
[42] = test system: K562
[43] = test system: HCT-116
[44] = test system: HOP-62
[45] = test system: MDA-MB-435
[46] = test system: TK-10
[47] = test system: HCC 2998
[48] = test system: CAKI-1
[49] = test system: SF-268
[50] = test system: NCI-H226
[51] = test system: HT-29
[52] = test system: SF-295
[53] = test system: MDA-MB-231
[54] = test system: CCRF-CEM
[55] = test system: SK-MEL-2
[56] = test system: LOX IMVI
[57] = test system: SK-MEL-28
[58] = test system: HOP-92
[59] = test system: SW-620

Q: With `Cc1cc(N(CCC#N)CCC#N)ccc1C(/N=N/c1ccccc1)=N\NC(=O)c1ccccc1` as the compound, how does the GI50 [1] read?
A: 18.3 µM

Q: And the GI50 [2]?
A: 53.5 µM (inactive)

Q: What about the GI50 [3] of the same compound?
A: 25.5 µM (inactive)

Q: And the GI50 [4]?
A: 42.7 µM (inactive)

Q: What about the GI50 [5] of the same compound?
A: 29.3 µM (inactive)

Q: What about the GI50 [6] of the same compound?
A: 86.9 µM (inactive)

Q: What about the GI50 [7] of the same compound?
A: 29.2 µM (inactive)

Q: What about the GI50 [8] of the same compound?
A: 40.4 µM (inactive)

Q: What about the GI50 [9] of the same compound?
A: 5.2 µM (inactive)

Q: What about the GI50 [10] of the same compound?
A: 35.7 µM (inactive)

Q: What about the GI50 [11] of the same compound?
A: 24 µM (inactive)

Q: What about the GI50 [12] of the same compound?
A: 35.7 µM (inactive)

Q: And the GI50 [13]?
A: 19.5 µM (inactive)

Q: What about the GI50 [14] of the same compound?
A: 38.8 µM (inactive)

Q: What about the GI50 [15] of the same compound?
A: 31.5 µM (inactive)

Q: What about the GI50 [16] of the same compound?
A: 58.1 µM (inactive)

Q: And the GI50 [17]?
A: 30.3 µM (inactive)

Q: What about the GI50 [18] of the same compound?
A: 39.4 µM (inactive)

Q: What about the GI50 [19] of the same compound?
A: 17.4 µM (inactive)

Q: And the GI50 [20]?
A: 30.5 µM (inactive)

Q: What about the GI50 [21] of the same compound?
A: 16.4 µM (inactive)

Q: What about the GI50 [22] of the same compound?
A: 6.81 µM (inactive)

Q: And the GI50 [23]?
A: 24.6 µM (inactive)

Q: What about the GI50 [24] of the same compound?
A: 18.6 µM (inactive)

Q: What about the GI50 [25] of the same compound?
A: 7.96 µM (inactive)

Q: And the GI50 [26]?
A: 21.7 µM (inactive)

Q: And the GI50 [27]?
A: 2.77 µM (inactive)

Q: What about the GI50 [28] of the same compound?
A: 20.2 µM (inactive)

Q: And the GI50 [29]?
A: 34 µM (inactive)

Q: What about the GI50 [30] of the same compound?
A: 16.9 µM (inactive)

Q: What about the GI50 [31] of the same compound?
A: 18.7 µM (inactive)

Q: What about the GI50 [32] of the same compound?
A: 18.1 µM (inactive)

Q: What about the GI50 [33] of the same compound?
A: 48.6 µM (inactive)

Q: And the GI50 [34]?
A: 16.3 µM (inactive)

Q: And the GI50 [35]?
A: 17.9 µM (inactive)

Q: What about the GI50 [36] of the same compound?
A: 24.3 µM (inactive)

Q: And the GI50 [37]?
A: 28.2 µM (inactive)

Q: What about the GI50 [38] of the same compound?
A: 20.4 µM (inactive)

Q: What about the GI50 [39] of the same compound?
A: 43.9 µM (inactive)

Q: What about the GI50 [40] of the same compound?
A: 69 µM (inactive)

Q: What about the GI50 [41] of the same compound?
A: 38.5 µM (inactive)

Q: What about the GI50 [42] of the same compound?
A: 9.84 µM (inactive)

Q: And the GI50 [43]?
A: 20.6 µM (inactive)

Q: What about the GI50 [44] of the same compound?
A: 55.8 µM (inactive)

Q: What about the GI50 [45] of the same compound?
A: 8.04 µM (inactive)

Q: What about the GI50 [46] of the same compound?
A: 7.66 µM (inactive)

Q: What about the GI50 [47] of the same compound?
A: 22.9 µM (inactive)

Q: And the GI50 [48]?
A: 28.2 µM (inactive)

Q: What about the GI50 [49] of the same compound?
A: 42.8 µM (inactive)

Q: What about the GI50 [50] of the same compound?
A: 43.4 µM (inactive)

Q: What about the GI50 [51] of the same compound?
A: 16.8 µM (inactive)

Q: And the GI50 [52]?
A: 11.6 µM (inactive)

Q: And the GI50 [53]?
A: 57 µM (inactive)

Q: And the GI50 [54]?
A: 18.6 µM (inactive)

Q: And the GI50 [55]?
A: 77.1 µM (inactive)

Q: What does the source list for `Cc1cccc(C)c1Nc1nc(C)c(C(=O)CC(=O)C(=O)Nc2c(C(C)C)cccc2C(C)C)s1`?
A: GI50 [1]: > 100 µM; GI50 [2]: 89.7 µM (inactive); GI50 [3]: > 100 µM (inactive); GI50 [4]: 56.8 µM (inactive); GI50 [5]: > 100 µM (inactive); GI50 [6]: > 100 µM (inactive); GI50 [7]: > 100 µM (inactive); GI50 [56]: > 100 µM (inactive); GI50 [8]: > 100 µM (inactive); GI50 [9]: > 100 µM (inactive); GI50 [10]: > 100 µM (inactive); GI50 [11]: > 100 µM (inactive); GI50 [12]: 24.7 µM (inactive); GI50 [13]: 72.9 µM (inactive); GI50 [57]: > 100 µM (inactive); GI50 [14]: > 100 µM (inactive); GI50 [15]: > 100 µM (inactive); GI50 [16]: 43.8 µM (inactive); GI50 [17]: 72.6 µM (inactive); GI50 [18]: > 100 µM (inactive); GI50 [19]: > 100 µM (inactive); GI50 [20]: > 100 µM (inactive); GI50 [21]: > 100 µM (inactive); GI50 [22]: 69.3 µM (inactive); GI50 [24]: > 100 µM (inactive); GI50 [25]: > 100 µM (inactive); GI50 [26]: > 100 µM (inactive); GI50 [27]: > 100 µM (inactive); GI50 [28]: 73.8 µM (inactive); GI50 [30]: 78.3 µM (inactive); GI50 [31]: > 100 µM (inactive); GI50 [58]: 43.4 µM (inactive); GI50 [32]: > 100 µM (inactive); GI50 [34]: > 100 µM (inactive); GI50 [35]: 39.4 µM (inactive); GI50 [36]: > 100 µM (inactive); GI50 [37]: > 100 µM (inactive); GI50 [38]: > 100 µM (inactive); GI50 [39]: > 100 µM (inactive); GI50 [40]: > 100 µM (inactive); GI50 [41]: > 100 µM (inactive); GI50 [42]: > 100 µM (inactive); GI50 [43]: > 100 µM (inactive); GI50 [44]: > 100 µM (inactive); GI50 [45]: > 100 µM (inactive); GI50 [46]: > 100 µM (inactive); GI50 [47]: > 100 µM (inactive); GI50 [48]: > 100 µM (inactive); GI50 [49]: > 100 µM (inactive); GI50 [50]: > 100 µM (inactive); GI50 [51]: > 100 µM (inactive); GI50 [52]: 58.5 µM (inactive); GI50 [53]: > 100 µM (inactive); GI50 [55]: > 100 µM (inactive); GI50 [59]: > 100 µM (inactive)

Q: With `CC(=O)Oc1ccc2cc(-c3ccccc3OC(C)=O)c(=O)oc2c1` as the compound, how does the GI50 [1] read?
A: 33.7 µM

Q: What about the GI50 [3] of the same compound?
A: 25.6 µM (inactive)

Q: And the GI50 [4]?
A: 28.8 µM (inactive)

Q: What about the GI50 [5] of the same compound?
A: 86.5 µM (inactive)

Q: What about the GI50 [6] of the same compound?
A: 69 µM (inactive)

Q: What about the GI50 [7] of the same compound?
A: 18.3 µM (inactive)

Q: And the GI50 [56]?
A: 64.9 µM (inactive)

Q: What about the GI50 [8] of the same compound?
A: 46.9 µM (inactive)

Q: What about the GI50 [9] of the same compound?
A: 25.7 µM (inactive)

Q: What about the GI50 [10] of the same compound?
A: 34 µM (inactive)

Q: What about the GI50 [11] of the same compound?
A: 4.17 µM (inactive)

Q: What about the GI50 [12] of the same compound?
A: 3.24 µM (inactive)

Q: What about the GI50 [13] of the same compound?
A: 6.92 µM (inactive)

Q: And the GI50 [57]?
A: 38.6 µM (inactive)

Q: And the GI50 [14]?
A: 32.1 µM (inactive)

Q: And the GI50 [15]?
A: 56.5 µM (inactive)

Q: What about the GI50 [17] of the same compound?
A: 24.8 µM (inactive)

Q: And the GI50 [18]?
A: 25.2 µM (inactive)

Q: And the GI50 [19]?
A: 59.3 µM (inactive)

Q: And the GI50 [20]?
A: 31.6 µM (inactive)

Q: And the GI50 [21]?
A: 30.7 µM (inactive)

Q: What about the GI50 [22] of the same compound?
A: 7.69 µM (inactive)

Q: And the GI50 [23]?
A: 40.7 µM (inactive)

Q: What about the GI50 [24] of the same compound?
A: 89.3 µM (inactive)

Q: What about the GI50 [25] of the same compound?
A: 49.5 µM (inactive)

Q: What about the GI50 [26] of the same compound?
A: 21.7 µM (inactive)

Q: What about the GI50 [28] of the same compound?
A: 36.5 µM (inactive)

Q: What about the GI50 [29] of the same compound?
A: 34.3 µM (inactive)

Q: And the GI50 [30]?
A: > 100 µM (inactive)

Q: And the GI50 [32]?
A: 33.5 µM (inactive)

Q: What about the GI50 [33] of the same compound?
A: 11.7 µM (inactive)

Q: And the GI50 [34]?
A: 4.3 µM (inactive)

Q: What about the GI50 [35] of the same compound?
A: 4.97 µM (inactive)

Q: What about the GI50 [36] of the same compound?
A: 62.4 µM (inactive)

Q: What about the GI50 [38] of the same compound?
A: > 100 µM (inactive)

Q: And the GI50 [39]?
A: 76 µM (inactive)

Q: And the GI50 [40]?
A: 51.4 µM (inactive)

Q: What about the GI50 [41] of the same compound?
A: > 100 µM (inactive)

Q: What about the GI50 [42] of the same compound?
A: 38 µM (inactive)

Q: And the GI50 [43]?
A: 66.5 µM (inactive)

Q: And the GI50 [44]?
A: 54.1 µM (inactive)

Q: And the GI50 [45]?
A: 10.9 µM (inactive)

Q: What about the GI50 [47] of the same compound?
A: 48.1 µM (inactive)

Q: What about the GI50 [49] of the same compound?
A: 19.1 µM (inactive)

Q: And the GI50 [50]?
A: 27.7 µM (inactive)

Q: What about the GI50 [51] of the same compound?
A: > 100 µM (inactive)

Q: And the GI50 [52]?
A: 50.4 µM (inactive)

Q: And the GI50 [53]?
A: 82.8 µM (inactive)

Q: What about the GI50 [54] of the same compound?
A: 6.15 µM (inactive)

Q: And the GI50 [55]?
A: 53.7 µM (inactive)

Q: And the GI50 [59]?
A: 64.6 µM (inactive)
